Columns and labels:
Format in all cases: biochemical
Conditions in all cases: 3 μM; percent of control kinase activity
CDK5/p35(h) = CDK5/p35(h) (Homo sapiens, UniProt Q00535); test: CDK5/p35(h) kinase assay
Protocol: (§1) Six compounds (presumptive single agents) were tested against a panel of 50 kinases. The results are presented in Table 2; numbers for each kinase indicate the percent of control kinase activity in the presence of a 3μM concentration of the indicated agent.
(§2) Agents that target two or more different kinases are useful in the methods of the invention as described elsewhere herein. Such compounds may be identified, and their effect on certain kinases may be identified, using the assays briefly described below in Examples 4-83. Each of these assays was carried out as described in Davies et al., Biochem. J., 351:95-105 (2000). All assays were carried out at 10 μM ATP unless otherwise noted.
(§3) In a final reaction volume of 25 μl, CDK5/p35 (h) (5-10 mU) is incubated with 8 mM MOPS pH 7.0, 0.2 mM EDTA, 0.1 mg/ml histone H1, 10 mM MgAcetate and [γ-^33P-ATP] (specific activity approx. 500 cpm/pmol, concentration as required). The reaction is initiated by the addition of Mg^2+ [γ-^33P-ATP]. After incubation for 40 minutes at room temperature, the reaction is stopped by the addition of 5 μl of a 3% phosphoric acid solution. 10 μl of the reaction is then spotted onto a P30 filtermat and washed three times for 5 minutes in 75 mM phosphoric acid and once in methanol prior to drying and scintillation counting.

PRK2(h) = PRK2(h) (Homo sapiens, UniProt Q16513); test: PRK2(h) kinase assay
Protocol: as §1, §2
as §3, with “PRK2” for “CDK5/p35”, “50” for “8”, “Tris” for “MOPS”, “7.5, 0.1” for “7.0, 0.2”, “EGTA, 0.1% β-mercaptoethanol, 30 μM […] (SEQ ID NO:12),” for “EDTA, 0.1 mg/ml histone H1,”

MAPKAP-K2(h) = MAPKAP-K2(h) (Homo sapiens, UniProt P49137); test: MAPKAP-K2(h) kinase assay
Protocol: as §1, §2
as §3, with “MAPKAP-K2” for “CDK5/p35”, “50” for “8”, “Na-β-glycerophosphate” for “MOPS”, “7.5, 0.1” for “7.0, 0.2”, “EGTA, 30 μM […] (SEQ ID NO:11),” for “EDTA, 0.1 mg/ml histone H1,”, “(Specific” for “(specific”

CDK3/cyclinE(h) = CDK3/cyclinE(h) (Homo sapiens, UniProt Q00526); test: CDK3/cyclinE(h) kinase assay
Protocol: as §1, §2
as §3, with “CDK3/cyclinE” for “CDK5/p35”

Syk(h) = Syk(h) (Homo sapiens, UniProt P43405); test: Syk(h) kinase assay
Protocol: as §1, §2
(§4) In a final reaction volume of 25 μl, Syk (h) (5-10 mU) is incubated with 50 mM Tris pH 7.5, 0.1 mM EGTA, 0.1 mM NaVanadate, 0.1% β-mercaptoethanol, 0.1 mg/ml poly(Glu, Tyr) 4:1, 10 mM MgAcetate and [γ-^33P-ATP] (specific activity approx. 500 cpm/pmol, concentration as required). The reaction is initiated by the addition of Mg^2+ [γ-^33P-ATP]. After incubation for 40 minutes at room temperature, the reaction is stopped by the addition of 5 μl of a 3% phosphoric acid solution. 10 μl of the reaction is then spotted onto a Filtermat A and washed three times for 5 minutes in 75 mM phosphoric acid and once in methanol prior to drying and scintillation counting.

Fyn(h) = Fyn(h) (Homo sapiens, UniProt P06241); test: Fyn(h) kinase assay
Protocol: as §1, §2
as §4, with “Fyn” for “Syk”, “250 μM […] (Cdc2 peptide; SEQ ID NO:7),” for “0.1% β-mercaptoethanol, 0.1 mg/ml poly(Glu, Tyr) 4:1,”, “P30 filtermat” for “Filtermat A”

CK2(h) = CK2(h) (Homo sapiens, UniProt P68400); test: CK2(h) kinase assay
Protocol: as §1, §2
as §3, with “CK2(h)” for “CDK5/p35 (h)”, “20” for “8”, “Hepes” for “MOPS”, “7.6, 0.15 M NaCl, 0.1” for “7.0, 0.2”, “5 mM DTT, 0.1% Triton X-100, 165 μM […] (SEQ ID NO:6),” for “0.1 mg/ml histone H1,”

PRK2(h), sequence (Q16513 whole entry): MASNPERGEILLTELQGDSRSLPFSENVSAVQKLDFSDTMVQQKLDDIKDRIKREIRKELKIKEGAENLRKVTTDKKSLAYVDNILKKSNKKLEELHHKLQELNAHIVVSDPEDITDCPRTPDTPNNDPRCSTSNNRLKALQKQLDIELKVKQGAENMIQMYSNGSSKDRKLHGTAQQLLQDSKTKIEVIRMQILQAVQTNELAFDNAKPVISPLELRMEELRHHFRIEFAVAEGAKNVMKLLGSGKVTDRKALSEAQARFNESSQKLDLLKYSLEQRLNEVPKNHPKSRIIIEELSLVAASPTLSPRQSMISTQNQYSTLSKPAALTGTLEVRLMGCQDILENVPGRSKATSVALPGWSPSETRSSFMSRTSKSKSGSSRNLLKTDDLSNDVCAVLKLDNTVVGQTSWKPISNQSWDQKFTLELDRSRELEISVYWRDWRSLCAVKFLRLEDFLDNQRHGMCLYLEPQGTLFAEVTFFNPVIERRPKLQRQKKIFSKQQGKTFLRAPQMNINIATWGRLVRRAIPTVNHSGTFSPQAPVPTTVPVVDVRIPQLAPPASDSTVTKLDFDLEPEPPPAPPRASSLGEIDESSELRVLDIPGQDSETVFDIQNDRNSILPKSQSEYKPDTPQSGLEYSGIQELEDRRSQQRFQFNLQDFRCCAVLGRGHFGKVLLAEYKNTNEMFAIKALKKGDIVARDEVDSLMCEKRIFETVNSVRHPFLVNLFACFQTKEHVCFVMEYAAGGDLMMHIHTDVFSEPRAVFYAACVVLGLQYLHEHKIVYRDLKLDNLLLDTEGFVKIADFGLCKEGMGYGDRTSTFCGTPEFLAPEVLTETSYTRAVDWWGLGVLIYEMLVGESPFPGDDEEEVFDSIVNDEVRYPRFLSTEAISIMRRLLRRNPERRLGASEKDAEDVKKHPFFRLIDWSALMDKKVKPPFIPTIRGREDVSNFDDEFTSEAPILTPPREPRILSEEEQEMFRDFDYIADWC
Fyn(h), sequence (P06241 whole entry): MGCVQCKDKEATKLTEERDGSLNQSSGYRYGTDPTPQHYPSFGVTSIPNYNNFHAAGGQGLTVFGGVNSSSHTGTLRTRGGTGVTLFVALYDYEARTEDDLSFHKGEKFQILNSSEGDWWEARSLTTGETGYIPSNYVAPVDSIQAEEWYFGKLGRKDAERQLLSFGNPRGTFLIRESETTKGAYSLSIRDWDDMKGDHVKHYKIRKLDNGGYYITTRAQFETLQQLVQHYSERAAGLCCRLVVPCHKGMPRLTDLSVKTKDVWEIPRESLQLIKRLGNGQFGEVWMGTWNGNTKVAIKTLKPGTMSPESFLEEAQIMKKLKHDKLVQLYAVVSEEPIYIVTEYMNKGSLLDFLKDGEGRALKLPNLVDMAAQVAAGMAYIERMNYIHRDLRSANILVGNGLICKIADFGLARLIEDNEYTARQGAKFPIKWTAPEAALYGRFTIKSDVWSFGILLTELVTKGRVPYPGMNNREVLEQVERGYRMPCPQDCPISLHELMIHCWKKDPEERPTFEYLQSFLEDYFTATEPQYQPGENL
CDK5/p35(h), sequence (Q00535 whole entry): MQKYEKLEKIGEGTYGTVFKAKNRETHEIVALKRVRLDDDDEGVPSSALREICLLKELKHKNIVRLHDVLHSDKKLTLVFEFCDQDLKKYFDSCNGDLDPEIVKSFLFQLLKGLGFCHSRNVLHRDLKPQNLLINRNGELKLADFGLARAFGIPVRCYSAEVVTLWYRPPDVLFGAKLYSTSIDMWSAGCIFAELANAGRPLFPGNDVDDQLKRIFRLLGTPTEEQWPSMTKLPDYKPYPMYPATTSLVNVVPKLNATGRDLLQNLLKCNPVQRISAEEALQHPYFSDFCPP
CDK5/p35(h), sequence (Q15078 whole entry partner): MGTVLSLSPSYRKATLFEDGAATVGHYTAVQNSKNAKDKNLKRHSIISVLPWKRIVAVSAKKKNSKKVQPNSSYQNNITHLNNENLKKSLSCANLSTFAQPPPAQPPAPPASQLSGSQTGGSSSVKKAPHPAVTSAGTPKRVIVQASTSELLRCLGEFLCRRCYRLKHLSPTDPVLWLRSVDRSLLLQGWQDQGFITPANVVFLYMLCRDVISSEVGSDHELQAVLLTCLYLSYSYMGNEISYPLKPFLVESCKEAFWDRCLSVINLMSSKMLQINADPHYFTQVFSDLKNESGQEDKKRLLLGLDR
CK2(h), sequence (P68400 whole entry): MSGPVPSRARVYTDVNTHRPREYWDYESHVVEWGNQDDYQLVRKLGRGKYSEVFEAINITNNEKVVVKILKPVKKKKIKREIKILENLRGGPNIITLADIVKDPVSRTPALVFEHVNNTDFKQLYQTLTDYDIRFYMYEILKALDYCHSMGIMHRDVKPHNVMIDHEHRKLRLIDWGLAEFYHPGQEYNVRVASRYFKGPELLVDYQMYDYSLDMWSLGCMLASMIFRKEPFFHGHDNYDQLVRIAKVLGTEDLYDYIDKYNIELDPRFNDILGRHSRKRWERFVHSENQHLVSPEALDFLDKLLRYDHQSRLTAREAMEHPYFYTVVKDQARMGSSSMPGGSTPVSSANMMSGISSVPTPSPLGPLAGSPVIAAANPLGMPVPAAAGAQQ
CK2(h), sequence (P67870 whole entry partner): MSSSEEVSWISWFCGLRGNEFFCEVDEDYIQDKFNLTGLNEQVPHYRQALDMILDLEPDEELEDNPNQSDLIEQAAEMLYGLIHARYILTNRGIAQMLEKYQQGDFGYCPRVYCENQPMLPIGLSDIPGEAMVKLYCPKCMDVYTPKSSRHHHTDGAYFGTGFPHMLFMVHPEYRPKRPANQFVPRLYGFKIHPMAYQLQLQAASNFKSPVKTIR
MAPKAP-K2(h), sequence (P49137 whole entry): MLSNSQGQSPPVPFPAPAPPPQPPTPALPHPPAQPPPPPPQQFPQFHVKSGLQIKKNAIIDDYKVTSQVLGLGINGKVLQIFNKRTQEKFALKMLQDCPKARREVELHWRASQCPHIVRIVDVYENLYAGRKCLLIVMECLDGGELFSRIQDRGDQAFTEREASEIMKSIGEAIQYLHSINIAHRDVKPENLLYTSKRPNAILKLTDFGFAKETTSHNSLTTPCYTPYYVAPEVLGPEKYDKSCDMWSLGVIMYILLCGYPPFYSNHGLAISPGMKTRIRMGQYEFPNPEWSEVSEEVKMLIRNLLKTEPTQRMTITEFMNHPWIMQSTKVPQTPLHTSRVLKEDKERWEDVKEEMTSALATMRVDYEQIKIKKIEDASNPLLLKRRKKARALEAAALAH
CDK3/cyclinE(h), sequence (Q00526 whole entry): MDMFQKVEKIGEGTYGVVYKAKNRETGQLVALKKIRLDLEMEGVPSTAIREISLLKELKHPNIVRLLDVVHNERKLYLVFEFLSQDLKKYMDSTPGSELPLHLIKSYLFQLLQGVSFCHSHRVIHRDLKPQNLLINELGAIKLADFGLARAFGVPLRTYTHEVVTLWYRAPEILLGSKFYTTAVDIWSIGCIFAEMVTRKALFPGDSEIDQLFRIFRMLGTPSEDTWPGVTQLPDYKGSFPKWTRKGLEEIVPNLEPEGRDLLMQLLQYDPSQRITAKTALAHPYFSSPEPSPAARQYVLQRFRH
CDK3/cyclinE(h), sequence (P24864 whole entry partner): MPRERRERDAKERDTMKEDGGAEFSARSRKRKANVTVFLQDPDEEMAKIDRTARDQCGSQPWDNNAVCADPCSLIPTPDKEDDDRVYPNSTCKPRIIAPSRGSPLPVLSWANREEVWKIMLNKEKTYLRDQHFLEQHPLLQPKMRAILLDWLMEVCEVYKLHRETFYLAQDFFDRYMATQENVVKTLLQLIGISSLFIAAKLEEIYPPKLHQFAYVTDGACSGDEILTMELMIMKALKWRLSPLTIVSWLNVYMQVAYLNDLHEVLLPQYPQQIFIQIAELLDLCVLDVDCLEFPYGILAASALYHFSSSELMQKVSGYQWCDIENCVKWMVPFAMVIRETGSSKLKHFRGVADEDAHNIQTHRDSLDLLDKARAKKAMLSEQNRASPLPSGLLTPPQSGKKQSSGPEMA

Compound	Inhibitory activity (% of control), CDK5/p35(h) (CDK5/p35(h))	Inhibitory activity (% of control), PRK2(h) (PRK2(h))	Inhibitory activity (% of control), MAPKAP-K2(h) (MAPKAP-K2(h))	Inhibitory activity (% of control), CDK3/cyclinE(h) (CDK3/cyclinE(h))	Inhibitory activity (% of control), Syk(h) (Syk(h))	Inhibitory activity (% of control), Fyn(h) (Fyn(h))	Inhibitory activity (% of control), CK2(h) (CK2(h))
COc1ccc2cc(-c3n[nH]c4ccc(-c5n[nH]c(CN6CCOCC6)n5)cc34)ccc2c1 [CC001, 3-(6-Methoxynaphthalen-2-yl)-5-(5-Morpholin-4-Ylmethyl-1H-[1,2,4]Triazol-3-yl)-1H-Indazole]	7 % of control	9 % of control	97 % of control	31 % of control	26 % of control	14 % of control	45 % of control
CC(C)Cc1nc(-c2ccc3[nH]nc(-c4ccc5cc(OCCN6CCCC6)ccc5c4)c3c2)n[nH]1 [CC002, 5-(5-Isobutyl-1H-[1,2,4]Triazol-3-yl)-3-[6-(2-Pyrrolidin-1-yl-Ethoxy)-Naphthalen-2-yl]-1H-Indazole]	16 % of control	4 % of control	72 % of control	36 % of control	14 % of control	4 % of control	41 % of control
CC(C)(C)Cc1nc(-c2ccc3[nH]nc(-c4ccc5cc(OCc6ccccn6)ccc5c4)c3c2)n[nH]1 [CC004, 5-[5-(2,2-Dimethyl-propyl)-1H-[1,2,4]triazol-3-yl]-3-[6-(pyridine-2-ylmethoxy)-naphthalen-2-yl]-1H-indazole]	10 % of control	3 % of control	108 % of control	39 % of control	47 % of control	67 % of control	98 % of control
CCN1CCC[C@H]1COc1ccc2cc(-c3n[nH]c4ccc(-c5nc(CC(C)(C)C)n[nH]5)cc34)ccc2c1 [CC005, 2-[((2s)-1-ethylpyrrolidin-2-yl)methoxy]-6-{5-[3-(2,2-Dimethylpropyl)(1H-1,2,4,-triazol-5-yl)](1H-indazol-3-yl)}naphthalene]	8 % of control	1 % of control	56 % of control	25 % of control	15 % of control	4 % of control	74 % of control
Fc1ccc(-c2n[nH]c3ccc(-c4n[nH]c(C5CCCC5)n4)cc23)cc1 [CC006, 5-(5-Cyclopentyl-1H-[1,2,4]triazol-3-yl)-3-(4-fluoro-phenyl)-1H-indazole, reference compound]	12 % of control	24 % of control	96 % of control	15 % of control	46 % of control	65 % of control	50 % of control
O=C(NC1CCCC1)c1cccc(-c2n[nH]c3ccc(-c4nc[nH]n4)cc23)c1 [CC007, 3-(5-(1H-1,2,4-triazol-3-yl)(1H-indazol-3-yl))phenyl-N-cyclopentylcarboxamide, reference compound]	50 % of control	68 % of control	86 % of control	73 % of control	51 % of control	66 % of control	27 % of control

Source: US20050107386A1, “Methods of treating diseases and disorders by targeting multiple kinases” (priority 2003, published 2005)
